From patent US8859550B2, “Heterocyclic inhibitors of histamine receptors for the treatment of disease” (Kalypsys, Inc., priority 2011, dated 2014)
Where two headings read alike, the source gives them in different places.

Legend:
[1] = Equilibrium solubility study; type: physicochemical; settings: for solubility thermodynamic: thermodynamic from solid, read-out: Filtrate Concentration (equilibrium solubility)
Experimental: Equilibrium solubility experiments were conducted for Compound 2 Monohydrochloride Form 1, Compound 2 Monomesylate Form 1 and Compound 2 Monocitrate Form 1 salts in water and pH-5 acetate buffer solution. The results of the equilibrium solubility study are summarized in Table 26 (where “a” indicates FTIR and PXRD spectra of both samples were distinctly different from the known forms of Compound 2 or Compound 2 Monocitrate salt Form 1).

[2] = Solid state form conversion on storage at ambient conditions; type: physicochemical; settings: solid state, ambient conditions
Description: Two crystal forms of Compound 1 Mesylate Salt were obtained from these experiments. Compound 1 Mesylate Salt, Form 1 is a monomesylate reversible monohydrate solid state form that was obtained from ten of the twelve crystallization experiments conducted. […] Compound 1 Mesylate Salt Form 2 was obtained by slow evaporation of gummy solids at ambient temperature in two of twelve screening experiments. Compound 1 Mesylate Salt Form 2 was obtained as a mixture of Form 1 and Form 2 in one of twelve crystallization experiments.
A Compound 1 Mesylate salt form screen was conducted involving about 160 crystallization experiments in 48 solvents and aqueous mixtures was performed conducted as previously described (vide supra). Compound 1 Mesylate Salt Form 1, the reversible monohydrate initially discovered in during the crystallization experiments cited above, was obtained from a variety of solvents and crystallization conditions, including 25 slurry-ripening, six cooling, 16 evaporative and four vapor diffusion experiments. […] Samples of Compound 1, Mesylate Salt Forms 2-5 converted to Compound 1 Mesylate Salt Form 1 in solid state within one week at ambient conditions.

[3] = Solubility in aqueous acetate buffer (80 mM); type: physicochemical; settings: aqueous acetate buffer (80 mM) at pH3.5-4.5
[4] = Gravimetric Vapor Sorption (GVS); type: physicochemical; settings: 25° C.
Experimental: GVS: GVS experiments were conducted on a SurfaceMeasurement Systems DVS-HT at 25° C. The instrument was operated in step mode and the relative humidity (RH) was increased in 10% RH increments from 40% RH to 90% RH, then decreased from 90% RH to 0% RH, then increased a second time from 0% RH to 90% RH, then decreased from 90% RH to 0% RH. An extra step at 75% RH was included in each cycle. The mass equilibrium criterion was set at 0.005% change in mass over time (dm/dt). A minimum step time of 10 minutes and a maximum step time of 240 minutes were specified.

BALB/c mice = assay: Model of allergic rhinitis in Balb/C mice, whole-body plethysmography; type: in vivo; set-up: key: +: increase in RF over positive control; −: no increase in RF over positive control; settings: 0.1%, w/v, intranasal instillation 10 μl in each nostril 2.5 hours prior to OVA; day 4 (early phase)
Description: Female BALB/c mice, 6-12 weeks of age, were obtained from Jackson Laboratories (Bar Harbor, Me.). All experimental animals used in this work were under a protocol approved by the Institutional Animal Care and Use Committee of the National Jewish Medical and Research Center, Denver, Colo.
The assay protocol is similar to that described in Miyahara, S. et al. (2005), J Allergy Clin Immunol., 116:1020-1027. The role of the H4 receptor in this model has been validated [Shiraishi, Y. et al. (2009), J Allergy Clin Immunol., 123:556]. Briefly, mice received intraperitoneal injections of 20 μg ovalbumin (OVA, Grade V; Sigma-Aldrich, St. Louis, Mo.), previously emulsified in 2.25 mg of alum (AlumImuject; Pierce, Rockford, Ill.) in a total volume of 100 μL (sensitization phase). Injections occurred on days 0 and 14. […] On day 4 (early phase) and day 7 (late phase) after starting OVA challenges, respiratory frequency (RF) was measured in conscious animals by single chamber restrained whole-body plethysmography (WBP) [Buxco Research Systems, Troy, N.Y.]. […] After whole-body plethysmography on day 7, nasal airflow impedance was measured as described (RNA, see Methods section for Miyahara S. et al. [above] in the online supplemental material at the Journal of Allergy and Clinical Immunology: www.jacionline.org), using a custom-designed ventilator (Flexivent; Scireq, Montreal, Quebec, Canada). […]

human H4 [5] = target: T1, human H4 (Homo sapiens, UniProt Q9H3N8); assay: In vitro histamine receptor cell-based assay (aequorin bioluminescence), antagonist mode; settings: CHO-K1 cells expressing human H4, aequorin and Gα16; histamine at EC80
T1 construct: host or cells: CHO-K1
Experimental: (§1) The cell-based assays utilize an aequorin dependent bioluminescence signal. Doubly-transfected, stable CHO-K1 cell lines expressing human H4, or H1, mitochondrion-targeted aequorin, and (H4 only) human G protein Gα16 are obtained from Perkin-Elmer. Cells are maintained in F12 (Ham's) growth medium, containing 10% (vol./vol.) fetal bovine serum, penicillin (100 IU/mL), streptomycin (0.1 mg/mL), zeocin (0.25 mg/mL) and geneticin (0.40 mg/mL). Cell media components are from Invitrogen, Inc. One day prior to assay, the growth medium is replaced with the same, excluding zeocin and geneticin. In some assays, cells previously frozen at “ready to use density” are thawed and immediately available for loading with coelenterazine-h dye as described below. […]
(§2) Just before assay, the dye-loaded cells are diluted to 1.5×10^6 cells/mL (H4 receptor) or 0.75×10^6 cells/mL (H1 receptor) with additional assay medium. […] Assay plates are then transferred to a Lumilux bioluminescence plate reader (Perkin-Elmer) equipped with an automated 1536 disposable tip pipette. The pipette dispenses 3 μL/well of agonist (histamine, at twice the final concentration, where final concentration is a previously determined EC80) in assay medium, with concurrent bioluminescence detection. […] Efficacy is measured as a percentage of positive control activity.

[6] = In-situ salt formation screen (filtrate solubility); type: physicochemical; settings: thermodynamic from solid, read-out: Filtrate Solubility
human H4 [7] = target: T1, human H4; assay: In vitro histamine receptor cell-based assay (aequorin bioluminescence), agonist mode; settings: CHO-K1 cells expressing human H4; test compound alone, without added histamine
Experimental: as §1, §2

T1 sequence (Q9H3N8 whole entry): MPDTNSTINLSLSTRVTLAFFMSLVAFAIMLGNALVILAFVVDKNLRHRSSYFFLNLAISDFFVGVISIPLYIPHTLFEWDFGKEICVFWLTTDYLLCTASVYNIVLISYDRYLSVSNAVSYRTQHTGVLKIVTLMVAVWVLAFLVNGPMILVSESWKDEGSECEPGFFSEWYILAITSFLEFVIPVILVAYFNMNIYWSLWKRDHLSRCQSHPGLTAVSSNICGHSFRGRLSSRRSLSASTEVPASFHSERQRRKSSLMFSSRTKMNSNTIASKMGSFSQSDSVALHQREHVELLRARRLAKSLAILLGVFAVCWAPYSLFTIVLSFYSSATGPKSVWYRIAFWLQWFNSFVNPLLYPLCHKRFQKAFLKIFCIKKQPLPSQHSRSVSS

CN1CCN(c2ncc(-c3cccs3)n3nnnc23)CC1.CS(=O)(=O)O [Compound 1 Mesylate Salt Form 1, 8-(4-Methylpiperazin-1-yl)-5-(thiophen-2-yl)tetrazolo[1,5-a]pyrazine Mesylate Monohydrate]
solubility thermodynamic ([1]; 0.2 M acetate buffer, pH 5, aqueous buffer, 0.2M Acetate Buffer (pH5), final pH 4.17, residual solid Free Base): 58200 µg/mL
Filtrate Concentration (equilibrium solubility) ([1]; Water, final pH 3.51, Dissolved, Mesylate Monohydrate): >100000 µg/mL
solubility thermodynamic ([1]; water, pH 3.51, water, Water, final pH 3.51, Dissolved): > 100000 µg/mL
solubility ([1]; water, aqueous): > 100000 µg/mL
crystal form stability [2]: the most, and the only, stable crystal form
improvement in solubility over Compound 1 [3]: > 5 fold
hygroscopicity (GVS) [4]: not hydroscopic
GVS loss of water ([4]; below 20% RH): ~4.30%
GVS water content ([4]; between 20-90% RH): ~4.3%

CN1CCN(c2ncc(-c3cccs3)n3nnnc23)CC1 [Compound 1, 8-(4-Methylpiperazin-1-yl)-5-(thiophen-2-yl)tetrazolo[1,5-a]pyrazine]
WBP, Day 4 (respiratory frequency, RF) (BALB/c mice): +
EC50 (human H4 [5]): ≤ 10 µM
solubility at 48 h ([6]; aqueous buffer, 0.1M aqueous Acetic Acid, filtrate pH 4.02, filtrant Free Base): 7990 µg/mL
solubility at 48 h ([6]; aqueous buffer, 0.1M aqueous Citric Acid, filtrate pH 3.11, filtrant Salt): 1750 µg/mL
solubility at 48 h ([6]; aqueous buffer, 0.1M aqueous L-Glutamic Acid, filtrate pH 4.28, filtrant Free Base): 6750 µg/mL
solubility at 48 h ([6]; aqueous buffer, 0.1M aqueous L-Malic Acid, filtrate pH 4.15, filtrant Salt): 13400 µg/mL
solubility at 48 h ([6]; aqueous buffer, 0.1M aqueous L-Tartaric Acid, filtrate pH 3.48, filtrant Salt): 8690 µg/mL
solubility at 48 h ([6]; aqueous buffer, 0.1M aqueous Mesic Acid, filtrate pH 1.49, No Solids Isolated): 20000 µg/mL
solubility at 48 h ([6]; aqueous buffer, 0.1M aqueous Phosphoric Acid, filtrate pH 1.76, filtrant Salt): 870 µg/mL
solubility at 48 h ([6]; aqueous buffer, 0.1M aqueous Succinic Acid, filtrate pH 4.13, filtrant Free Base): 10400 µg/mL
solubility at 48 h ([6]; aqueous buffer, 0.1M aqueous Sulfuric Acid, filtrate pH 1.39, filtrant Salt): 560 µg/mL
solubility at 48 h ([6]; pH 4.2, aqueous buffer, 0.1M aqueous L-Aspartic Acid, filtrate pH 4.20, filtrant Free Base): 8640 µg/mL
solubility at 48 h ([6]; simulated gastric fluid, 0.1M aqueous Hydrochloric Acid, filtrate pH 1.25, filtrant Salt): 990 µg/mL
EC50 (human H4 [7]): > 100 µM

CNC1CN(c2ncc(-c3cccs3)n3nnnc23)C1 [Compound 2, N-methyl-1-(5-(thiophen-2-yl)tetrazolo[1,5-a]pyrazin-8-yl)azetidin-3-amine]
WBP, Day 4 (respiratory frequency, RF) (BALB/c mice): +
EC50 (human H4 [5]): ≤ 10 µM
solubility at 48 h ([6]; aqueous buffer, 0.1M aqueous Acetic Acid, filtrate pH 5.41, No Solids Isolated): > 24500 µg/mL
solubility at 48 h ([6]; aqueous buffer, 0.1M aqueous Citric Acid, filtrate pH 3.69, filtrant Salt): 4270 µg/mL
solubility at 48 h ([6]; aqueous buffer, 0.1M aqueous L-Aspartic Acid, filtrate pH 4.95, No Solids Isolated): > 18400 µg/mL
solubility at 48 h ([6]; aqueous buffer, 0.1M aqueous L-Glutamic Acid, filtrate pH 5.46, filtrant Free Base): 10400 µg/mL
solubility at 48 h ([6]; aqueous buffer, 0.1M aqueous L-Malic Acid, filtrate pH 5.13, No Solids Isolated): > 21100 µg/mL
solubility at 48 h ([6]; aqueous buffer, 0.1M aqueous L-Tartaric Acid, filtrate pH 3.23, filtrant Salt): 1390 µg/mL
solubility at 48 h ([6]; aqueous buffer, 0.1M aqueous Mesic Acid, filtrate pH 2.28, No Solids Isolated): > 25300 µg/mL
solubility at 48 h ([6]; aqueous buffer, 0.1M aqueous Phosphoric Acid, filtrate pH 4.8, filtrant Salt): 740 µg/mL
solubility at 48 h ([6]; aqueous buffer, 0.1M aqueous Succinic Acid, filtrate pH 4.75, filtrant Salt): 100 µg/mL
solubility at 48 h ([6]; aqueous buffer, 0.1M aqueous Sulfuric Acid, filtrate pH 1.42, filtrant Salt): 610 µg/mL
solubility at 48 h ([6]; simulated gastric fluid, 0.1M aqueous Hydrochloric Acid, filtrate pH 2.32, filtrant Salt): 15200 µg/mL
EC50 (human H4 [7]): > 100 µM
